The structures appear in SMILES notation.

In US20070032477A1, “Pteridine derivatives useful for making pharmaceutical compositions” (priority 2003, published 2007) one finds IC50, survival rate and body temperature data, which are given here for 2 compounds.

The subject of experiment [1] is mixed lymphocyte reaction (PBMC with allogeneic PBMC or Eppstein-Barr Virus-transformed human B cells as stimulator cells). As to the kind of experiment: Mixed lymphocyte reaction (MLR) assay. The format is cell-based. To be noted: lowest concentration giving 50% suppression of the MLR; [3H]-thymidine.
Experiment [2] concerns production of TNF-α by PBMC in response to stimulation by LPS. Nature of the experiment: TNF-α assay. To be noted: LPS 1 μg/ml, 72 hours, sandwich ELISA. In kind it is cell-based, human. The essentials:
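Cells were LPS-stimulated (1 μg/ml final) peripheral blood mononuclear cells at 10^6/ml, exposed 72 h at 37 °C to 0.1, 1 or 10 μM test compound.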

Experiment [3] deals with production of IL-1 β by PBMC in response to stimulation by LPS. As to the kind of experiment: IL-1 β assay. In kind it is cell-based, human. The conditions noted are these: LPS 1 μg/ml, 72 hours, sandwich ELISA. How it is done:
Peripheral blood mononuclear cells (herein referred as PBMC), in response to stimulation by lipopolysaccharide (LPS), a gram-negative bacterial endotoxin, produce various […], in particular human IL-1 β. Inhibition of the activation of PBMC can therefore be measured by the level of suppression of the production of IL-1 β by PBMC in response to stimulation by LPS.
Such inhibition measurement was performed as follows: PBMC were isolated from heparinized peripheral blood by density gradient centrifugation over Lymphoprep (commercially available from Nycomed, Norway). LPS was then added to the PMBC suspension in complete medium (10^6 cells/ml) at a final concentration of 1 μg/ml. The pteridine derivative to be tested was added at different concentrations (0.1 μM, 1 μM and 10 μM) and the cells were incubated at 37° C. for 72 hours in 5% CO2. The supernatants were collected, then IL-1 β concentrations were measured with an anti-IL-1 β antibody in a sandwich ELISA. The calorimetric reading of the ELISA was measured by a Multiskan RC plate reader (commercially available from ThermoLabsystems, Finland) at 450 nm (reference wavelength: 690 nm). Data analysis was performed with Ascent software 2.6. (also from ThermoLabsystems, Finland): a standard curve (recombinant human IL-1 β) was drawn and the amount (pg/ml) of each sample on the standard curve was determined.
The % suppression of human IL-1 β by the pteridine derivatives (drugs) of this invention was calculated using the formula: [formula]
Background: An ELISA detects its analyte on a solid surface through an enzyme-linked reagent.

Experiment [4] deals with TNF-α induced shock in C57BL/6 male mice. Nature of the experiment: Protection against a lethal dose of TNF-α. The format is in vivo. How it is done: A model of TNF-α induced shock in C57BL/6 male mice was performed as follows. Five animals from the control group received an intravenous administration of a lethal dose of TNF-α (10 μg) in the tail. Ten animals from the test group received three intraperitoneous injections of the pteridine derivative of example 17 (20 mg/kg/day) respectively 48 hours, 24 hours and immediately before an intravenous injection of TNF-α (10 μg).
Furthermore, all five mice from the control group died within 40 hours, the survival rate (80%) of mice that received the pteridine derivative of example 17 in addition to the TNF-α dose (10 μg) was quite substantial.

For `COc1ccc(-c2cnc3nc(N)nc(N4CCN(c5ccc(C)cc5)CC4)c3n2)cc1OC` [Example 176, 2-amino-6-(3,4-dimethoxyphenyl)-4-((4-methylphenyl)-piperazin-1-yl)pteridine], the IC50 in experiment [1] is 300 nM; in experiment [2], < 10 nM; in experiment [3], 4900 nM.
Regarding `COc1ccc(-c2cnc3nc(N)nc(N4CCN(C(=O)COc5ccccc5)CC4)c3n2)cc1OC` [Example 17, 2-amino-4-[(N-phenoxyacetyl)-piperazin-1-yl]-6-(3,4-dimethoxy-phenyl)pteridine], the IC50 in experiment [1] worked out at 3.8 nM; in experiment [2], 80 nM; in experiment [3], 2800 nM. Also, the survival rate in experiment [4] (TNF-α 10 μg i.v., 20 mg/kg/day i.p. three injections, within 40 hours) stood at 80%. In addition, the body temperature result in experiment [4] (followed for 40 hours, 20 mg/kg/day i.p. 48 h, 24 h and immediately before TNF-α 10 μg i.v.) was “body temperature of control mice dropped significantly when compared to mice receiving the test compound”.

For orientation: IC50 means the point on the concentration scale where inhibition reaches its midpoint.
